Experimental data: ChEMBL document CHEMBL1201862, “PubChem BioAssay data set” (2004)
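Interpolation was linear, between the two tested concentrations surrounding the appropriate level; five concentrations were tested over 48 hours in 96-well plates. GI50 = concentration required for 50% inhibition of growth.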 Calls of active or inactive are those of the source. Cut-off read from the data, not from the text of the source: active = GI50 up to about 1.1 µM and inactive = higher. Where a SMILES comes first, the peptide text is derived from it. The star is where a group is joined. Boc = CC(C)(C)OC(=O)*

Legend:
Assay in all cases: NCI tumour cell line growth inhibition, 48 h
MDA-N = system: MDA-N
NCI/ADR-RES = system: NCI/ADR-RES
T47D = system: T47D
KM-20L2 = system: KM-20L2
LXFL 529 = system: LXFL 529
M19-MEL = system: M19-MEL
XF498 = system: XF498
SNB-78 = system: SNB-78

Structure (SMILES) | GI50 (MDA-N) | GI50 (NCI/ADR-RES) | GI50 (T47D) | GI50 (KM-20L2) | GI50 (LXFL 529) | GI50 (M19-MEL) | GI50 (XF498) | GI50 (SNB-78)
[O-]c1c2cc(-[n+]3c(-c4ccccc4)cc(-c4ccccc4)cc3-c3ccccc3)cc1CO[C@@H](c1ccccc1)[C@H](c1ccccc1)OCc1cccc(n1)CO[C@@H](c1ccccc1)[C@H](c1ccccc1)OC2 | 0.0548 µM (active) | 1.97 µM (inactive) | 0.111 µM (active) | – | – | – | – | –
CC(=O)Nc1cc2c(s1)CCC1CC(=O)NN=C21 (stereo not drawn) | – | – | – | > 100 µM (inactive) | > 100 µM (inactive) | > 100 µM (inactive) | > 100 µM (inactive) | > 100 µM (inactive)
NC(=O)NN=C1Cc2ccccc2C1 | > 100 µM (inactive) | > 100 µM (inactive) | > 100 µM (inactive) | – | – | – | – | –
Cc1ccc2c3ccc4c(c3n(C)c2c1)C(=O)C=CC4=O | 4.94 µM (inactive) | > 5.89 µM (inactive) | 2.43 µM (inactive) | – | – | – | – | –
COC(=O)C(C(=O)C(=O)Nc1ccc(C)cc1)c1nc2ccc([N+](=O)[O-])cc2nc1O (stereo not drawn) | – | – | – | > 100 µM (inactive) | 51.6 µM (inactive) | > 100 µM (inactive) | > 100 µM (inactive) | > 100 µM (inactive)
OCC1OC(n2cnc3c(SCc4ccccc4)ncnc32)C(O)C1O (stereo not drawn) | > 100 µM (inactive) | 10.2 µM (inactive) | 40.5 µM (inactive) | – | – | – | – | –
COc1ccc(Nc2nc3cc(C(F)(F)F)ccc3nc2C(=O)O)cc1 | 31 µM (inactive) | 23.1 µM (inactive) | – | – | – | – | – | –
CC(=O)c1nc2ccccc2n1CC(=O)c1ccc(Cl)cc1 | 1.93 µM (inactive) | 2.94 µM (inactive) | 2.45 µM (inactive) | – | – | – | – | –
Cc1ccc(CC(=O)Nc2ccc(NC(=O)/C=C/NC(=O)/C=C/c3ccc(-c4ccccc4)cc3)cc2C(=O)c2ccccc2)cc1 | 2.5 µM (inactive) | 5.41 µM (inactive) | 2.84 µM (inactive) | – | – | – | – | –
C=CCOCn1ccc(N)nc1=O | > 100 µM (inactive) | – | > 100 µM (inactive) | – | – | – | – | –
O=C1CCc2cc3c(cc21)C(C(=O)O)CC3 (stereo not drawn) | > 100 µM (inactive) | > 100 µM (inactive) | > 100 µM (inactive) | – | – | – | – | –
Cc1ccc(-c2nc(Cc3n[nH]c(-c4ccc(C)cc4)n3)n[nH]2)cc1 | > 100 µM (inactive) | 29.6 µM (inactive) | – | – | – | – | – | –
COc1cc(C2c3cc4c(cc3CC3COC(=O)N32)OCO4)cc(OC)c1OC (stereo not drawn) | 0.434 µM (active) | 1.58 µM (inactive) | > 100 µM (inactive) | – | – | – | – | –
CCCC(=O)Nc1cc(/C=C/C(=O)N2CC(CCl)c3c2cc(OC(C)=O)c2[nH]cc(C)c32)n(C)c1 (stereo not drawn) | 5.12e-05 µM (active) | 0.00024 µM (active) | 6.3e-05 µM (active) | – | – | – | – | –
COC(=O)C(Cc1c[nH]c2ccccc12)NC(=O)C(Cc1c[nH]c2ccccc12)NC(=O)C(Cc1c[nH]c2ccccc12)NC(=O)C(Cc1c[nH]c2ccccc12)NC(=O)C(Cc1c[nH]c2ccccc12)NC(=O)C(Cc1c[nH]c2ccccc12)NC(=O)C(Cc1c[nH]c2ccccc12)NC(=O)C(Cc1c[nH]c2ccccc12)NC(=O)OC(C)(C)C (stereo not drawn) (Boc-WWWWWWWW-OMe; configuration not given here) | 39.1 µM (inactive) | – | – | – | – | – | – | –
O=C1c2ccccc2C(=O)N1CCc1nc(-c2ccccc2)c[nH]1 | > 100 µM (inactive) | > 100 µM (inactive) | – | – | – | – | – | –
COc1ccc(/C=C2\OC(=O)C(Cl)=C2c2ccc(OC)cc2)cc1 | > 100 µM (inactive) | – | > 100 µM (inactive) | – | – | – | – | –
C=CC1(CBr)CCC(C(C)(C)Br)O1 (stereo not drawn) | 8.57 µM (inactive) | 10.1 µM (inactive) | 2.28 µM (inactive) | – | – | – | – | –
CC(C)[C@@H](COC(C)(C)C)/N=C/N1CCc2c([nH]c3ccccc23)C1 | – | – | – | > 100 µM (inactive) | > 100 µM (inactive) | – | 36.1 µM (inactive) | > 100 µM (inactive)
COc1ccc(NC/C=C/C(=C/COC(C)=O)OC(C)=O)cc1 | 2.05 µM (inactive) | 2.59 µM (inactive) | 2.41 µM (inactive) | – | – | – | – | –
CCOC(=O)CN1C(=O)c2ccc(NC(=O)C(=O)O)cc2S1(=O)=O | > 100 µM (inactive) | > 100 µM (inactive) | > 100 µM (inactive) | – | – | – | – | –
CC(=O)OCC1OC(O[C@@H]2c3c(O)c4c(c(O)c3C3=C(NN(c5ccc([N+](=O)[O-])cc5[N+](=O)[O-])[Se]3=O)[C@@]2(C)O)C(=O)c2ccccc2C4=O)C(OC(C)=O)C(OC(C)=O)C1OC(C)=O (stereo partly drawn) | 0.273 µM (active) | 0.336 µM (active) | 0.286 µM (active) | – | – | – | – | –
CC(=O)C1C(c2ccc(N(C)C)cc2)c2cc3c(cc2OC1(C)O)OCO3 (stereo not drawn) | – | – | – | 6.85 µM (inactive) | – | 45.2 µM (inactive) | 34 µM (inactive) | 56 µM (inactive)
O=C(/C=C1\N=C(c2ccccc2)N(c2ccc3c(c2)Sc2cc(N4C(=O)/C(=C/C(=O)/C=C/c5ccccc5)N=C4c4ccccc4)ccc2N3)C1=O)/C=C/c1ccccc1 | – | 41.6 µM (inactive) | 63.7 µM (inactive) | – | – | – | – | –
COc1cc(S(=O)(=O)Nc2nc(-c3ccc(/N=C/c4cccs4)cc3)cs2)ccc1Cl | > 100 µM (inactive) | > 100 µM (inactive) | 84.3 µM (inactive) | – | – | – | – | –
CN1CCc2c(sc3ncn(C)c(=N)c23)C1 | > 100 µM (inactive) | > 100 µM (inactive) | > 100 µM (inactive) | – | – | – | – | –
CCCCCCNC(=O)c1cc(NCc2cc(OC)ccc2OC)ccc1O | 18.9 µM (inactive) | 16.9 µM (inactive) | 13.5 µM (inactive) | – | – | – | – | –
C[C@@H]1S[C@H](c2c(F)cccc2Cl)n2c1nc1ccccc12 | 7.62 µM (inactive) | 14.1 µM (inactive) | 22.5 µM (inactive) | – | – | – | – | –
CC(=O)N(C)CCc1c[nH]c2ccccc12 | > 100 µM (inactive) | > 100 µM (inactive) | > 100 µM (inactive) | – | – | – | – | –
c1csc(-c2cscc2-c2ccsc2)c1 | 33.3 µM (inactive) | 48.1 µM (inactive) | > 55.1 µM (inactive) | – | – | – | – | –
